Data published in patent publication US7863239B2, “Binding compounds, immunogenic compounds and peptidomimetics” (Pepscan Systems B.V., priority 2005, dated 2011).
“Also recorded” adds a separate entry of the source. *1 amine or outer side, *2 acyl side, *3 side chain or, on linkers, in order; H or OH if unused. Bridges are numbered along the chain shown (N, C = ends). Where no end group is shown, it is not given here. T4 = 1,2,4,5-tetrabromodurene scaffold; mXylylene = c1cc(C[*:1])cc(C[*:2])c1

Experiments:
anti-CCR5 antibody 2D7 = assay: Screening of peptide microarrays with anti-CCR5 antibody 2D7; format: binding; conditions: absorbance at 405 nm measured using a CCD-camera; for 2D7 (0.1 μg/ml): mAb 2D7 at 0.1 μg/ml on peptide microarray; for 2D7 (1 μg/ml): mAb 2D7 at 1 μg/ml on peptide microarray; for 2D7 (10 μg/ml): mAb 2D7 at 10 μg/ml on peptide microarray
Description: Grafting of the polypropylene support with polyacrylic acid was performed by irradiating the support in a 6% acrylic acid solution containing CUS04 using gamma radiation at a dose of 12 kGy. The grafted solid support containing carboxylic acid groups was subsequently reacted with t-butyloxycarbonyl-hexamethylenediamine (Boc-HMDA) using dicyclohexylcarbodiimide (DCC) with N-hydroxybenzotriazole (HOBt) and subsequent cleavage of the Boc-groups using trifluoroacetic acid (TFA). The peptides were synthesized using standard Fmoc-chemistry and, after acylation, deprotected by reaction with TFA (15 ml/g resin) containing 13.3% (w) phenol, 5% (v) thioanisole, 2.5% (v) 1,2-ethanedithiol, and 5% (v) milliQ-H2O for 2-4 hrs at RT. After washing 3× with H2O, the peptide microarrays were treated with excess of a 1.0 mM solution of either mP2 or T3 in 20 mM amm. bicarbonate (pH 7.8)/acetonitril (1:1 v/v) for 30-60 min. at room temperature, followed by 3× washing with 50% ACN/H2O. Then, the microarrays were washed with excess of millipore H2O and sonicated in disrupt-buffer (1% SDS/0.1% β-mercaptoethanol (BME) in phosphate buffered saline (PBS), pH 7.2) at 70° C. for 30 min. followed by sonication in millipore H2O for another 45 min. Synthese Van Scaffolds: The scaffolds are commercially available by Aldrich. Screening of Micro-Arrays with Antibodies Microarrays were pretreated with PBS for 30 min. followed by precoating with incubation buffer (PBS containing 5% ovalbumin, 5% horse serum and 1% Tween-80) for 1 hour. Then, the microarrays were incubated with mAb (typically 1/1000, diluted in incubation buffer) overnight at 4° C. After washing (3×10 min.) with PBS/Tween-80 (0.05%), the peptides were incubated with peroxidase labeled rabbit anti-mouse antibody for 1 hr at 25° C. (rampo, 1/1000; Dako, Glostrup, Denmark) and subsequently, after washing again (3×10 min.) with PBS/Tween-80 (0.05%), incubated with the peroxidase substrate 2,2′-azino-di-3-ethylbenzthiazoline sulfonate (ABTS; 50 mg in 100 ml 0.1M citric acid-sodium phosphate (McIlvaine) buffer (pH 4.0) containing 20 ul 30% H2O2). After 1 h the absorbance (at 405 nm) was measured using a CCD-camera (XC-77RR, Sony, Japan). Bound mAb was removed by sonication in disrupt-buffer as described above. The micro-arrays were re-used for screening approximately 10-15 times. CCR5 CCR5 is a […] co-receptor that is used by HIV for cellular entry. Antibodies specifically directed against CCR5 would therefore be suitable for counteracting cellular entry by HIV. However, immunization with whole CCR5 is problematic since CCR5 is a transmembrane protein. In order to be capable of eliciting CCR5-specific antibodies, immunogenic compounds based on CCR5 are therefore desired. In order to design suitable test compounds, 4 CCR5 sequences were taken into account: one N-terminus domain (Nt) and three extracellular loop domains extended with about 1-6 adjacent amino acid residues of the transmembrane domains (N-terminally as well as C-terminally). These extracellular loop domains are called e1, e2 and e3. The primary sequences of the considered domains are as follows (starting N-terminally):
In the first series of peptides (first row of the above Table), the C-terminal amino acids K, I, N, V, K, Q, I, and A of the Nt sequence were selected. Subsequently, N-terminal flanking sequences with a length of 21 amino acid residues were selected. […] Subsequently, peptides were produced containing one of these flanking sequences. Likewise, in the second series of peptides (second row of the above Table), the C-terminal amino acids P, C, Q, K, I, N, V and K of the Nt sequence were selected. Subsequently, N-terminal flanking sequences with a length of 18 amino acid residues were selected. […] Subsequently, peptides were produced containing one of these flanking sequences. […]

FSH = assay: Vaccination of rats with FSH-derived peptides, antisera analyzed in FSH-binding ELISA; conditions: rat, in vivo
Description: Peptides were synthesized by solid-phase peptide synthesis using a 4-(2′,4′-dimethoxyphenyl-Fmoc-aminomethyl)-phenoxy (RinkAmide) resin (BACHEM, Germany) on a Syro-synthesizer (MultiSynTech, Germany). All amino acids were purchased and used as N-alpha-(Fmoc) protected with side-chain functionalities protected as N-t-Boc (KW), O-t-Bu (DESTY), N-Trt (HNQ), S-Trt (C), or N-Pbf (R) groups. A coupling protocol using a 6.5-fold excess of HBTU/HOBt/amino acid/DIPEA (1:1:1:2) in NMP with a 30 min. activation time using double couplings was employed. […] Subsequently, female Wistar rats were immunized on day 0 with 400 uL of a ˜2.5 mg/mL of the peptide or peptide-T-construct in PBS/CFA 1:1 (v/v) (PBS=Phosphate-Buffered Saline, CFA=Complete Freund's Adjuvance), followed by a booster (same quantity and concentration) at 4 weeks. Subsequently, the anti-peptide titers were determined after 6 weeks to check for immune response and finally the rats were bleeded after 8 weeks and the antisera collected. Antisera were analyzed in an FSH-binding ELISA (Greiner, PS; GDA-coating with 1 μg/mL of FSH (Biotrend)) using 2,2′-azine-di(ethylbenzthiazoline sulfonate) (ABTS) in combination with a peroxidase-labeled Goat-anti-rat serum as second antibody. […]

CAQWDFGNCQKEGLHYTC (SEQ ID NO: 109) (not fully specified; bound to P2 or T3 scaffold) [compound 1158]
2D7 (0.1 μg/ml) (anti-CCR5 antibody 2D7): 132 | 2D7 (1 μg/ml) (anti-CCR5 antibody 2D7): 416 | 2D7 (10 μg/ml) (anti-CCR5 antibody 2D7): 2377

CFGNTMGGGRSQKEGLHYTC (SEQ ID NO: 108) (not fully specified; bound to P2 or T3 scaffold) [compound 719]
2D7 (0.1 μg/ml) (anti-CCR5 antibody 2D7): 113 | 2D7 (1 μg/ml) (anti-CCR5 antibody 2D7): 678 | 2D7 (10 μg/ml) (anti-CCR5 antibody 2D7): 2819

CQKEGLHYC (SEQ ID NO: 102) (not fully specified; bound to P2 or T3 scaffold) [compound 443]
2D7 (0.1 μg/ml) (anti-CCR5 antibody 2D7): 148 | 2D7 (1 μg/ml) (anti-CCR5 antibody 2D7): 2636 | 2D7 (10 μg/ml) (anti-CCR5 antibody 2D7): 3090

CSQKEGLHYTC (SEQ ID NO: 103) (not fully specified; bound to P2 or T3 scaffold) [compound 449]
2D7 (0.1 μg/ml) (anti-CCR5 antibody 2D7): 99 | 2D7 (1 μg/ml) (anti-CCR5 antibody 2D7): 2606 | 2D7 (10 μg/ml) (anti-CCR5 antibody 2D7): 2889

CQKEGLHYTC (SEQ ID NO: 101) (not fully specified; bound to P2 or T3 scaffold) [compound 447]
2D7 (0.1 μg/ml) (anti-CCR5 antibody 2D7): 261 | 2D7 (1 μg/ml) (anti-CCR5 antibody 2D7): 2706 | 2D7 (10 μg/ml) (anti-CCR5 antibody 2D7): 2943

*KIQKTATFKELVYETCRVPGAAHHADSLCTYPVATQAHAGK# (SEQ ID NO: 120) T4 (KIQKTATFKELVYETCRVPGAAHHADSLCTYPVATQAHAGK-NH2; linker 16-29 via T4 (inferred)) [No. 9 (Table 4B), FSH-derived CLIPS peptide]
immune response against native FSH in rats (in words) (FSH): Good results

CWDFGNTMCQKEGLHYTC (SEQ ID NO: 104) (not fully specified; bound to P2 or T3 scaffold) [compound 1160]
2D7 (0.1 μg/ml) (anti-CCR5 antibody 2D7): 315 | 2D7 (1 μg/ml) (anti-CCR5 antibody 2D7): 2469 | 2D7 (10 μg/ml) (anti-CCR5 antibody 2D7): 2765

*TFKELVYETCRVPGAAHHADSLCTYPVATQAH# (SEQ ID NO: 119) + m-T2 (TFKELVYETCRVPGAAHHADSLCTYPVATQAH-NH2; linker 10-23 via mXylylene (inferred)) [No. 4 (Table 4B), FSH-derived CLIPS peptide]
immune response against native FSH in rats (in words) (FSH; listed as TFKELVYETCRVPGAAHHADSLCTYPVATQAH cyclized onto m-T2): production of antibodies that are reactive with native FSH; also recorded: very high antibody titre

CQWDFGNTCQKEGLHYTC (SEQ ID NO: 107) (not fully specified; bound to P2 or T3 scaffold) [compound 1159]
2D7 (0.1 μg/ml) (anti-CCR5 antibody 2D7): 213 | 2D7 (1 μg/ml) (anti-CCR5 antibody 2D7): 1153 | 2D7 (10 μg/ml) (anti-CCR5 antibody 2D7): 2636

CRSQKEGLHYTC (SEQ ID NO: 105) [compound 450]
2D7 (0.1 μg/ml) (anti-CCR5 antibody 2D7): 107 | 2D7 (1 μg/ml) (anti-CCR5 antibody 2D7): 2364 | 2D7 (10 μg/ml) (anti-CCR5 antibody 2D7): 2852

CNTMGGGRSQKEGLHYTC (SEQ ID NO: 106) (not fully specified; bound to P2 or T3 scaffold) [compound 702]
2D7 (0.1 μg/ml) (anti-CCR5 antibody 2D7): 68 | 2D7 (1 μg/ml) (anti-CCR5 antibody 2D7): 1580 | 2D7 (10 μg/ml) (anti-CCR5 antibody 2D7): 2787
